How the values were obtained:
Conditions in all cases: 72 h
U2OS [1] = experiment: drug sensitivity score (DSS) for viability; higher = more toxic; extreme values may be limits of the assay
Calu-3 [2] = experiment: as above
Caco-2 [3] = experiment: as above
HepG2 [4] = experiment: as above
U2OS [5] = experiment: relative viability EC50 (midpoint between 100% and the lowest measured viability); higher = less toxic
Calu-3 [6] = experiment: as above
Caco-2 [7] = experiment: as above
HepG2 [8] = experiment: as above
U2OS [9] = experiment: cell viability relative to DMSO; higher = less toxic
Calu-3 [10] = experiment: as above
Caco-2 [11] = experiment: as above
HepG2 [12] = experiment: as above
Vero E6 [13] = experiment: drug sensitivity score (DSS) for viability; higher = more toxic; extreme values may be limits of the assay
Vero E6 [14] = experiment: relative viability EC50 (midpoint between 100% and the lowest measured viability); higher = less toxic
Vero E6 [15] = experiment: cell viability relative to DMSO; higher = less toxic

Row | Compound | drug sensitivity score (U2OS [1]) | drug sensitivity score (Calu-3 [2]) | drug sensitivity score (Caco-2 [3]) | drug sensitivity score (HepG2 [4]) | relative viability EC50 (U2OS [5]) | relative viability EC50 (Calu-3 [6]) | relative viability EC50 (Caco-2 [7]) | relative viability EC50 (HepG2 [8]) | cell viability (U2OS [9]; 1 nM) | cell viability (U2OS [9]; 10 nM) | cell viability (U2OS [9]; 100 nM) | cell viability (U2OS [9]; 1000 nM) | cell viability (U2OS [9]; 10000 nM) | cell viability (Calu-3 [10]; 1 nM) | cell viability (Calu-3 [10]; 10 nM) | cell viability (Calu-3 [10]; 100 nM) | cell viability (Calu-3 [10]; 1000 nM) | cell viability (Calu-3 [10]; 10000 nM) | cell viability (Caco-2 [11]; 1 nM) | cell viability (Caco-2 [11]; 10 nM) | cell viability (Caco-2 [11]; 100 nM) | cell viability (Caco-2 [11]; 1000 nM) | cell viability (Caco-2 [11]; 10000 nM) | cell viability (HepG2 [12]; 1 nM) | cell viability (HepG2 [12]; 10 nM) | cell viability (HepG2 [12]; 100 nM) | cell viability (HepG2 [12]; 1000 nM) | cell viability (HepG2 [12]; 10000 nM) | drug sensitivity score (Vero E6 [13]) | relative viability EC50 (Vero E6 [14]) | cell viability (Vero E6 [15]; 1 nM) | cell viability (Vero E6 [15]; 10 nM) | cell viability (Vero E6 [15]; 100 nM) | cell viability (Vero E6 [15]; 1000 nM) | cell viability (Vero E6 [15]; 10000 nM)
1 | Nc1nc(N)nc(-c2cc(Cl)ccc2Cl)n1 [irsogladine] | 0 | 0 | 0 | 0 | > 10 µM | > 10 µM | > 10 µM | > 10 µM | 105% | 97.3% | 101% | 100% | 99.2% | 112% | 93.7% | 91.5% | 110% | 99.1% | 101% | 99% | 101% | 102% | 108% | 89.4% | 93.9% | 94.6% | 93.5% | 105% | – | – | – | – | – | – | –
2 | CC(C)(C)c1cc(C(C)(C)C)c(NC(=O)c2c[nH]c3ccccc3c2=O)cc1O [ivacaftor] | 0.1 | 0.7 | 0.4 | 0 | > 10 µM | > 10 µM | > 10 µM | > 10 µM | 100% | 103% | 95.3% | 103% | 86.8% | 97.2% | 103% | 93.3% | 91.1% | 84.1% | 104% | 98.8% | 99.6% | 101% | 81.6% | 105% | 105% | 100% | 100% | 98.3% | – | – | – | – | – | – | –
3 | CCC[C@@H]1C[C@@H](C(=O)N[C@@H]([C@H]2O[C@H](SC)[C@H](O)[C@@H](O)[C@H]2O)[C@@H](C)O)N(C)C1 [lincomycin] | – | 0 | 0 | – | – | > 10 µM | > 10 µM | – | – | – | – | – | – | 99.5% | 92.6% | 99.1% | 98.7% | 103% | 111% | 94.2% | 107% | 97.2% | 111% | – | – | – | – | – | 0 | > 10 µM | 97.6% | 103% | 94.9% | 89.6% | 101%
4 | C[C@@H](O)[C@H]1C(=O)N2C(C(=O)O)=C(S[C@@H]3CN[C@H](C(=O)N(C)C)C3)[C@H](C)[C@H]12 [meropenem] | 0 | 0 | 0.1 | – | > 10 µM | > 10 µM | > 10 µM | – | 101% | 102% | 99.9% | 104% | 102% | 96.1% | 109% | 88.9% | 104% | 98.5% | 83.8% | 99.6% | 91.3% | 111% | 84.3% | – | – | – | – | – | – | – | – | – | – | – | –
5 | O=S(=O)(F)Cc1ccccc1 [phenylmethylsulfonyl-fluoride] | 0 | 0 | 0 | 0 | > 10 µM | > 10 µM | > 10 µM | > 10 µM | 106% | 99.8% | 104% | 102% | 101% | 105% | 101% | 103% | 98.6% | 102% | 102% | 95.6% | 103% | 99.7% | 99.2% | 109% | 114% | 97.8% | 111% | 96.7% | – | – | – | – | – | – | –

Source: the supplement of paper PMC13380429
